# Marks after values point to notes of the source that are not given here.
# T1: rat α-CGRP (Rattus norvegicus, UniProt P01256)
# T1 construct: 1-37 of rat α-CGRP (WT); purchased GenScript Corporation or Global Peptide Services (custom order); host or cells: synthetic peptide
# T1 sequence (P01256 83-119 limits assumed): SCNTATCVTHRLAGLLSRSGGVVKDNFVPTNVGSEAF
# Legend:
# [1] = test system: middle meningeal artery (MMA) dilation evoked by electrical field stimulation; experiment: Dural artery (closed cranial window) assay; type: in vivo, rat
# Description: Closed Cranial Window Model: The purpose of this experiment was to determine the acute effect of anti-CGRP antagonist antibodies and compare it with the acute effect of the CGRP receptor antagonist BIBN4096BS. Experiments were carried out as previously described (Williamson et al., Cephalalgia 17(4):518-24 (1997)) with the following modifications. Sprague Dawley rats (300-400 g) were anesthetized with 70 mg/kg i.p. pentobarbital. Anesthesia was maintained with 20 mg/kg/hr i.v. pentobarbital. Rats were cannulated through the jugular vein for delivery of all drugs. Blood pressure was monitored with a probe (mikro-tip catheter, Millar Instruments) threaded through the femoral artery into the abdominal aorta. The rats were tracheotomized and breathing rate was maintained at 75 breaths per minute at a volume of 3.5 mL. After fixating the head in a stereotactic instrument and removing the scalp, a 2×6 mm window in the left parietal area just lateral to the sagittal suture was made by thinning the bone with a dental drill. Using a micromanipulator, a platinum bipolar electrode was lowered onto the surface and covered with heavy mineral oil. Lateral to the electrode window another window of 5×6 mm was created and filled with heavy mineral oil through which the diameter of a branch of the middle meningeal artery (MMA) was continuously monitored with a CCD camera and a video dimension analyzer (Living Systems). The rats were rested for no less than 45 minutes after the preparation. A baseline response to electrical stimulation was established (15 V, 10 hz, 0.5 ms pulses, 30 seconds) and then rats were dosed i.v. with experimental compound (10 mg/kg mu7E9, 300 μg/kg BIBN4096BS or PBS 0.01% Tween 20). Additional electrical stimulations were done at 5 (BIBN4096BS), 30, 60, 90 and 120 minutes after dosing. All data was recorded using chart software (ADInstruments).
# The purpose of this experiment was to determine if the anti CGRP antibody could still block electrically stimulated MMA dilation 7 days after dosing. Preparation of the rats was identical to the above described acute experiment (Example 6) with the following exceptions. […] It was impossible to establish a baseline dilation response to electrical stimulation prior to dosing as in the acute experiment so the antibody groups were compared to dilation of the MMA in a vehicle (PBS, 0.01% Tween 20) dosed control group. After the rats were allowed to rest for no less than 45 minutes the dura was electrically stimulated at 30 minute intervals. Stimulations were at 2.5V, 5V, 10V, 15V and 20V, all at 10 Hz, 0.5 ms pulses for 30 seconds.
# chronic migraine = experiment: Clinical study of antibody G1 in chronic migraine
# [2] = test system: CGRP activity (skin blood flow after saphenous nerve stimulation); experiment: Skin vasodilatation induced by stimulation of rat saphenous nerve; type: in vivo; details: for blood flow increase stimulated by electronic pulses on saphenous nerve: compared to vehicle
# Description: To test antagonist activity of anti-CGRP antibodies, effect of the antibodies on skin vasodilatation by stimulation of rat saphenous nerve was tested using a rat model described previously. Escott et al., Br. J. Pharmacol. 110:772-776, 1993. In this rat model, electrical stimulation of saphenous nerve induces release of CGRP from nerve endings, resulting in an increase in skin blood flow. Blood flow in the foot skin of male Sprague Dawley rats (170-300 g, from Charles River Hollister) was measured after saphenous nerve stimulation. Rats were maintained under anesthesia with 2% isoflurane. Bretylium tosylate (30 mg/kg, administered i.v.) was given at the beginning of the experiment to minimize vasoconstriction due to the concomitant stimulation of sympathetic fibers of the saphenous nerve. Body temperature was maintained at 37° C. by the use of a rectal probe thermostatically connected to a temperature controlled heating pad. Compounds including antibodies, positive control (CGRP 8-37), and vehicle (PBS, 0.01% Tween 20) were given intravenously through the right femoral vein, except for the experiment shown in FIG. 3, the test compound and the control were injected through tail vein, and for experiments shown in FIGS. 2A and 2B, antibodies 4901 and 7D11 were injected intraperitoneally (IP). Positive control compound CGRP 8-37 (vasodilatation antagonist), due to its short half-life, was given 3-5 min before nerve stimulation at 400 nmol/kg (200 μl). Tan et al., Clin. Sci. 89:656-73, 1995. The antibodies were given in different doses (1 mg/kg, 2.5 mg/kg, 5 mg/kg, 10 mg/kg, and 25 mg/kg).
# For experiments shown in FIGS. 2A and 2B, antibody 4901 (25 mg/kg), antibody 7D11 (25 mg/kg), or vehicle control (PBS with 0.01% Tween 20) was administered intraperitoneally (IP) 72 hours before the electrical pulse stimulation. For experiment shown in FIG. 3, antibody 4901 (1 mg/kg, 2.5 mg/kg, 5 mg/kg, or 25 mg/kg) or vehicle control (PBS with 0.01% Tween 20) was administered intravenously 24 hours before the electrical pulse stimulation. After administration of the antibodies or vehicle control, the saphenous nerve of the right hindlimb was exposed surgically, cut proximally and covered with plastic wrap to prevent drying. A laser Doppler probe was placed over the medio-dorsal side of the hindpaw skin, which is the region innervated by the saphenous nerve. Skin blood flow, measured as blood cell flux, was monitored with a laser Doppler flow meter. When a stable base-line flux (less than 5% variation) was established for at least 5 min, the nerve was placed over platinum bipolar electrodes and electrically stimulated with 60 pulses (2 Hz, 10 V, 1 ms, for 30 sec) and then again 20 minutes later. Cumulative change in skin blood flow was estimated by the area under the flux-time curve (AUC, which is equal to change in flux multiplied by change in time) for each flux response to electrical pulse stimulation. The average of the blood flow response to the two stimulations was taken. Animals were kept under anesthesia for a period of one to three hours.
# For experiments shown in FIGS. 4A and 4B, saphenous nerve was exposed surgically before antibody administration. The saphenous nerve of the right hindlimb was exposed surgically, cut proximally and covered with plastic wrap to prevent drying. […] Skin blood flow, measured as blood cell flux, was monitored with a laser Doppler flow meter. […]
# rat α-CGRP = biological target: T1, rat α-CGRP; experiment: Biacore affinity of antibody G1 and variant Fabs to rat α-CGRP; type: binding; details: 37° C.; Fab; screening mode unless underlined
# Description: Biacore assay for affinity determination. […] All Biacore assays were conducted in HBS-EP running buffer (10 mM HEPES pH 7.4, 150 mM NaCl, 3 mM EDTA, 0.005% v/v polysorbate P20). CGRP surfaces were prepared by diluting the N-biotinylated CGRP to a concentration of less than 0.001 mg/mL into HBS-EP buffer and injecting it across the SA sensor chip using variable contact times. Low capacity surfaces, corresponding to capture levels <50 response units (RU) were used for high-resolution kinetic studies, whereas high capacity surfaces (about 800 RU of captured CGRP) were used for concentration studies, screening, and solution affinity determinations. […] Samples were typically injected for 1 minute at 100 μL/min and dissociation times of at least 10 minutes were allowed. After each binding cycle, surfaces were regenerated with 25 mM NaOH in 25% v/v ethanol, which was tolerated over hundreds of cycles. […]
# High-resolution analysis of binding interactions with extremely slow offrates. […] The association rate constant (kon) was determined by injecting a 2-fold titration series (in duplicate) spanning 550 nM-1 nM for 30 sec at 100 uL/min and allowing only a 30 sec dissociation phase. The dissociation rate constant (koff) was determined by injecting three concentrations (high, medium, and low) of the same titration series in duplicate for 30 sec and allowing a 2-hour dissociation phase. […]
# [3] = 900 mg group (n = 85), Change from Baseline to Month 1
# [4] = 900 mg group (n = 85), Change from Baseline to Month 2
# [5] = 900 mg group (n = 85), Change from Baseline to Month 3
# [6] = 675/225 mg group (n = 87), Change from Baseline to Month 1
# [7] = 675/225 mg group (n = 87), Change from Baseline to Month 2
# [8] = 675/225 mg group (n = 87), Change from Baseline to Month 3
molecule,measurement,setting,value
NCCCC[C@H](NC(=O)[C@@H](Cc1cc(Br)c(O)c(Br)c1)NC(=O)N1CCC(N2Cc3ccccc3NC2=O)CC1)C(=O)N1CCN(c2ccncc2)CC1 [BIBN4096BS],time after dosing within which MMA dilation is blocked,[1]; 300 μg/kg i.v.,≤ 5 min
same,time by which the effect has completely disappeared,[1]; 300 μg/kg i.v.,≤ 90 min
same,MMA dilation evoked by electrical field stimulation,"[1]; 300 μg/kg i.v., acute",blocks
"G1: anti-CGRP antagonist antibody produced by expression vectors ATCC PTA-6867 and PTA-6866; VH SEQ ID NO:1, VL SEQ ID NO:2; modified human IgG2 [Clone G1]",MMA dilation evoked by electrical stimulation,"[1]; 10 mg/kg and 3 mg/kg i.v., 7 days prior, 10 to 20 volts, vs vehicle",significantly blocked
same,"Days using acute medications, change from baseline, mean (SE)",chronic migraine; [3],−5.4 (0.7)** Days
same,"Headache hours, change from baseline, mean (SE)",chronic migraine; [3],−56.8 (7.3)^+ hours
same,"M/S Headache Days (days with moderate to severe headaches), change from baseline, mean (SE)",chronic migraine; [3],−5.7 (0.6)^+ Days
same,"Migraine Days, change from baseline, mean (SE)",chronic migraine; [3],−6.3 (0.7)^+ Days
same,"Days using acute medications, change from baseline, mean (SE)",chronic migraine; [4],−5.8 (0.7) Days
same,"Headache hours, change from baseline, mean (SE)",chronic migraine; [4],−66.2 (8.1)^+ hours
same,"M/S Headache Days (days with moderate to severe headaches), change from baseline, mean (SE)",chronic migraine; [4],−5.9 (0.6) Days
same,"Migraine Days, change from baseline, mean (SE)",chronic migraine; [4],−6.7 (0.7)^ Days
same,"Headache hours, change from baseline, mean (SE)",chronic migraine; [5],−67.5 (8.6)** hours
same,"Migraine Days, change from baseline, mean (SE)",chronic migraine; [5],−7.1 (0.8)* Days
same,Subjects with >50% Decrease in M/S Headache days,"chronic migraine; 900 mg group, Month 1",47 (55%)^+ N (%)
same,Subjects with >75% Decrease in M/S Headache days,"chronic migraine; 900 mg group, Month 1",28 (33%)^+ N (%)
same,Subjects with >50% Decrease in M/S Headache days,"chronic migraine; 900 mg group, Month 2",47 (55%)* N (%)
same,Subjects with >75% Decrease in M/S Headache days,"chronic migraine; 900 mg group, Month 2",26 (31%) N (%)
same,Subjects with >50% Decrease in M/S Headache days,"chronic migraine; 900 mg group, Month 3",47 (55%)^+ N (%)
same,Subjects with >75% Decrease in M/S Headache days,"chronic migraine; 900 mg group, Month 3",27 (32%)* N (%)
same,"Days using acute medications, change from baseline, mean (SE)",chronic migraine; [6],−5.3 (0.7)* Days
same,"Headache hours, change from baseline, mean (SE)",chronic migraine; [6],−44.1 (7.3)** hours
same,"M/S Headache Days (days with moderate to severe headaches), change from baseline, mean (SE)",chronic migraine; [6],−4.9 (0.6)** Days
same,"Days using acute medications, change from baseline, mean (SE)",chronic migraine; [7],−6.6 (0.7)* Days
same,"Headache hours, change from baseline, mean (SE)",chronic migraine; [7],−58.3 (8.1)* hours
same,"M/S Headache Days (days with moderate to severe headaches), change from baseline, mean (SE)",chronic migraine; [7],−5.8 (0.6) Days
same,"Migraine Days, change from baseline, mean (SE)",chronic migraine; [7],−6.6 (0.7) Days
same,"Days using acute medications, change from baseline, mean (SE)",chronic migraine; [8],−6.6 (0.7)* Days
same,"Headache hours, change from baseline, mean (SE)",chronic migraine; [8],−59.8 (8.6)* hours
same,"M/S Headache Days (days with moderate to severe headaches), change from baseline, mean (SE)",chronic migraine; [8],−6.0 (0.7)* Days
same,"Migraine Days, change from baseline, mean (SE)",chronic migraine; [8],−6.8 (0.8) Days
same,Subjects with >50% Decrease in M/S Headache days,"chronic migraine; 675/225 mg group, Month 1",36 (41%)* N (%)
same,Subjects with >75% Decrease in M/S Headache days,"chronic migraine; 675/225 mg group, Month 1",19 (22%)** N (%)
same,Subjects with >50% Decrease in M/S Headache days,"chronic migraine; 675/225 mg group, Month 2",42 (48%) N (%)
same,Subjects with >75% Decrease in M/S Headache days,"chronic migraine; 675/225 mg group, Month 2",26 (30%)* N (%)
same,Subjects with >50% Decrease in M/S Headache days,"chronic migraine; 675/225 mg group, Month 3",46 (53%)** N (%)
same,Subjects with >75% Decrease in M/S Headache days,"chronic migraine; 675/225 mg group, Month 3",25 (29%)* N (%)
same,"Average number of headache hours at visits 2, 3 and 4",chronic migraine; both treatment groups vs placebo,significant decrease
same,number of headache hours in subjects using prevention medications,"chronic migraine; e.g. topiramate and amitriptyline or propranolol, relative to a placebo group",significant decrease
same,blood flow increase stimulated by electronic pulses on saphenous nerve,"[2]; 1 mg/kg i.v., stimulation at 90 min",significantly inhibited
same,blood flow increase stimulated by electronic pulses on saphenous nerve,"[2]; 10 mg/kg i.v., stimulation at 90 and 120 minutes",significantly inhibited
same,blood flow increases in the dorso-medial hindpaw skin evoked by saphenous nerve stimulation,"[2]; 10 mg/kg or 3 mg/kg i.v., 24 hours or 7 days prior to stimulation, vs vehicle",significantly inhibited
same,EC50 at 24 hours (dose required for 50% maximal effect),"[2]; i.v. 24 hours before stimulation, curve fit",1.3 mg/kg
same,EC50 at 7 days (dose required for 50% maximal effect),"[2]; i.v. 7 days before stimulation, curve fit",0.8 mg/kg
"M84: G1 variant: L1 R28N T30V; L2 A51H L56T; H2 E54N A57N; HC-FW3 L99T A100V (antibody, V domains shown) VH: EVQLVESGGGLVQPGGSLRLSCAASGFTFSNYWISWVRQAPGKGLEWVAEIRSNSDNSATHYAEAVKGRFTISRDNAKNSLYLQMNSLRAEDTAVYYCTVYFDYGLAIQNYWGQGTLVTVSS VL: EIVLTQSPATLSLSPGERATLSCKASKNVVTYVSWYQQKPGQAPRLLIYGHSNRYTGIPARFSGSGSGTDFTLTISSLEPEDFAVYYCSQSYNYPYTFGQGTKLEIK",α-rat koff,rat α-CGRP,0.0176 s⁻¹
